Measured values as given in patent publication US20060035317A1, “Effect of treatment with 4,5-dihydroxy-2-cyclopenten-1-one (dhcp) on gene expression and quorum-sensing in bacteria” (priority 2002, published 2006).

Columns and labels:
[1] = test system: AI-2 activity, V. harveyi reporter strain BB170; test: AI-2 assay (luminescence of reporter strain); type: cell-based
Procedure: FIGS. 2A and 2B are graphs showing DHCP inhibits AI-2 activity. The AI-2 activity assay was carried out as described in Materials and Methods section of Example 1. The luminescence seen with V. harveyi BB152 was assumed as 100% and the other activities were expressed as relative %. In FIG. 2A, the lanes are as follows: Sterile AB medium, lane 1; V. harveyi BB152 culture fluid, lane 2; DHCP (250 μM), lane 3; DHCP (250 μM) plus V. harveyi BB152 culture fluid, lane 4. In FIG. 2B, DHCP was added to the reaction mixtures after maximum luminescence was generated by AI-2, at a concentration of 250 μM (closed circles) and 100 μM (open squares). The corresponding control activity of AI-2 without DHCP addition is also shown (open triangles). The light production was monitored at various time points with a liquid scintillation counter.
The AI-2 assays using V. harveyi reporter strain (BB170) were carried out as described by Surette and Bassler (Surette et al., 1999). Cell-free culture fluid from V. harveyi BB152 strain was used as a positive control. Sterile AB medium was used a negative control. Briefly, the V. harveyi BB170 strain was grown overnight with aeration at 30° C. in the AB medium and the cells were then diluted 1:5000 in the fresh medium. The diluted culture (90 μl) was added in the assay mixture containing 10 μl of AB medium or cell-free culture fluid of V. harveyi BB152/DHCP (100-250 μM). To check the effect of DHCP on the light production by AI-2, it was added to the reaction mixture after the maximum luminescence was achieved. The light production was monitored with a liquid scintillation counter.
In the present study, the AI-2 assay designed by Suretter and Bassler (Surette et al., 1999) was used. The V. harveyi BB170 reporter strain has the quorum-sensing phenotype, sensor 1^−, sensor 2^+. It induces lux expression through the signaling system 2 detector. Addition of 10% cell-free culture fluid prepared from V. harveyi BB152 strain (containing the system 2 autoinducer) stimulates luminescence expression in the reporter strain. […] The laboratory of the present inventors examined if DHCP inhibits the activity of AI-2. […] Sterile AB medium was used as a negative control (lane 1). […] It has been reported that the AI-2 gave maximum luminescence at approximately 10 μM concentration (Schauder et al., 2001). It should be noted that the DHCP concentration used in the present assay was in excess of the AI-2 concentration. It was also tested if DHCP can inhibit AI-2 activity when it is added after maximum luminescence is generated by AI-2. […] When it was added at the concentration of 100 μM (open squares), the AI-2 activity was reduced to zero after 40 min. The corresponding control activity without DHCP addition (open triangles) was completely stable.

[2] = test system: AI-2 activity, V. harveyi reporter strain BB170; conditions: Schauder et al., 2001; cited from earlier work

O=C1C=CC(O)C1O (centres unmarked) [DHCP, 4,5-dihydroxy-2-cyclopenten-1-one]
Time until AI-2 activity was reduced to zero ([1]; DHCP 100 μM added after maximum luminescence generated by AI-2, FIG. 2B): 40 min
Time until AI-2 activity was reduced to zero ([1]; DHCP 250 μM added after maximum luminescence generated by AI-2, FIG. 2B): ≤ 8 min
Inhibition of AI-2 activity ([1]; DHCP 250 μM added immediately before AI-2 containing cell-free extract of V. harveyi BB152, FIG. 2A lane 4): completely inhibited
AI-2 activity (luminescence) of DHCP itself ([1]; DHCP 250 μM alone, FIG. 2A lane 3): did not show AI-2 activity
Activity as AI-2 candidate in the screening assay [2]: did not show any activity
